We go through 2 compounds from ChEMBL document CHEMBL3044848, “Antiangiogenic and growth inhibitory effects of synthetic novel 1, 5-diphenyl-1,4 pentadiene-3-one-3-yl-ethanone pyridine curcumin analogues on Ehrlich ascites tumor in vivo” (Med Chem Res, 2008).

The source made the active and inactive calls. No cut-off for these calls is given here.

The test system of series [1] is EAT. Description: Antitumor activity against EAT cells xenografted in Mus musculus (mouse) assessed as condensed nuclei at 100 mg/kg, ip administered on days 7,9 and 11 post tumor-injection measured on day 12 by acridine orange:ethidium bromide staining. It is filed as functional, organism-based. Also on record: dose 100 mg/kg.
Series [2] concerns Mus musculus. Description: Toxicity against Mus musculus Swiss albino (mouse) assessed as weight loss at 100 mg/kg, ip. Format: organism-based. The settings on record: in vivo. Also on record: dose 100 mg/kg, route intraperitoneal.
A short description of series [3]: Antitumor activity against Mus musculus (mouse) EAT cells xenografted in Mus musculus Swiss albino (mouse) assessed as change in body weight at 100 mg/kg, ip administered on days 7,9 and 11 post tumor-injection measured on day 12 (reference value: 10.44 +/- 0.147). Format: functional. The settings on record: route intraperitoneal.
The test system of series [4] is Chorioallantoic membrane. Description: Antiangiogenesis activity against fertilized Gallus gallus (chicken) egg chorioallantoic membrane assessed as inhibition of neovascularization at 0.1 mM administered to 11 day old embryo measured on day 13 by microscopic analysis. It is filed as functional, tissue-based.
The nature of series [5]: Antitumor activity against Mus musculus (mouse) EAT cells xenografted in Mus musculus Swiss albino (mouse)assessed as increase in life span at 100 mg/kg, ip administered on days 7,9 and 11 post tumor-injection measured on day 12 relative to control. Format: functional. The settings on record: route intraperitoneal.
In series [6] the test system is EAT. Nature of the series: Antiangiogeneic activity against Mus musculus (mouse) EAT cells xenografted in Mus musculus Swiss albino (mouse) assessed as decrease in peritoneal microvessel density per high power field at 100 mg/kg, ip administered on days 7,9 and 11 measured on day 12 by H and E staining-based microscopic analysis. Format: functional, organism-based. Further details: dose 100 mg/kg.

Series [7] has as its system Mus musculus. Description: Toxicity against Mus musculus Swiss albino (mouse) assessed as mortality at 100 mg/kg, ip. It is filed as organism-based. Also on record: dose 100 mg/kg, route intraperitoneal. The settings on record: in vivo.
Series [8] deals with EAT. Description: Antitumor activity against Mus musculus (mouse) EAT cells xenografted in Mus musculus Swiss albino (mouse) assessed as decrease in cell number at 100 mg/kg, ip administered on days 7,9 and 11 post tumor-injection measured on day 12 relative to control. It is filed as functional, organism-based. Further details: dose 100 mg/kg.
Series [9] concerns EAT. Nature of the series: Antitumor activity against EAT cells xenografted in Mus musculus Swiss albino (mouse) assessed as apoptotic bodies at 100 mg/kg, ip administered on days 7,9 and 11 post tumor-injection measured on day 12 by Geimsa staining. It is filed as functional, organism-based. Also on record: dose 100 mg/kg.
The test system of series [10] is EAT. Nature of the series: Antitumor activity against Mus musculus (mouse) EAT cells xenografted in Mus musculus Swiss albino (mouse) assessed as decrease in ascites volume at 100 mg/kg, ip administered on days 7,9 and 11 post tumor-injection measured on day 12 relative to control. It is filed as functional, organism-based. Further details: dose 100 mg/kg.

With `COc1cc(/C=C/C(=O)/C=C/c2ccc(OCC(=O)c3cccnc3)c(OC)c2)ccc1OCC(=O)c1cccnc1`, the result in [1], in series [6], in [8], in series [9] and in [10] was Active. In addition, the Activity entry in series [2] is given as “Non-toxic”; in series [3], -5.07 g; in series [5], 88.8%; in [7], “Non-toxic”. Further, the inhibition entry in series [4] is “Active”.

Take `O=C(/C=C/c1ccc(OCC(=O)c2cccnc2)cc1)/C=C/c1ccc(OCC(=O)c2cccnc2)cc1`: the result in series [1], in series [6], in series [8], in [9] and in series [10] was Active. The Activity entry in series [2] is “Non-toxic”; in series [3] it was -4.96 g; in [5], 66.6%; in series [7], “Non-toxic”. Also, in series [4], the inhibition result is “Active”.
